Source: patent US4748161A, “Triterpenyl esters of organic acids and hypolipidemic agents composed of them” (Amano Pharmaceutical Co., Ltd., priority 1984, dated 1988)

Test system: serum lipids and serum lipid hydroperoxide
Experiment: Pharmacological test method A for anti-hyperlipidemic activity (serum lipids, 2 weeks feeding)
Assay type: in vivo, male Wistar strain rats
Details: for AI [(TC - HDL-C)/(HDL-C)] / HDL-C in serum / LPO in serum / PL in serum / TC in serum / TG in serum: 1% in hyperlipidemic diet, 2 weeks; for AI % of diff. / AI Diff. / HDL-C % of diff. / HDL-C Diff. / LPO % of diff. / LPO Diff. / PL % of diff. / PL Diff. / TC % of diff. / TC Diff. / TG % of diff. / TG Diff.: versus control group
Summary of the method: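 Male Wistar rats (100±lg, 10 per group) fed 10 g/day for 2 weeks of a 1% cholesterol/0.5% cholic acid diet, test groups with 1% each of cycloartenol, 24-methylenecycloartanol and cyclobranol. After 16 h fast, aortic blood serum assayed enzymatically/colorimetrically for TC, HDL-C, TG, PL, LPO.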

Structure (SMILES)	AI [(TC - HDL-C)/(HDL-C)]	HDL-C in serum [mg/dL]	LPO in serum [nmol/mL]	PL in serum [mg/dL]	TC in serum [mg/dL]	TG in serum [mg/dL]	AI % of diff. [%]	AI Diff.	HDL-C % of diff.	HDL-C Diff.	LPO % of diff. [%]	LPO Diff. [nmol/mL]	PL % of diff. [%]	PL Diff. [mg/dL]	TC % of diff. [%]	TC Diff. [mg/dL]	TG % of diff.	TG Diff.
CC(C)=CCCC(C)C1CCC2(C)C3CCC4C(C)(C)C(OC(=O)C=Cc5cccc(N)c5)CCC45CC35CCC12C (centres unmarked) [Example 108, cycloartenyl ester of m-aminocinnamic acid]	3.627	46.6	2.20	151.4	215.6	29.0	-53.7	-4.213	+26.3%	+9.7 mg/dl	-21.4	-0.60	-8.6	-14.2	-33.9	-110.6	-14.7%	-5.0 mg/dL
CC(C)=CCCC(C)C1CCC2(C)C3CCC4C(C)(C)C(OC(=O)c5ccc(N)cc5)CCC45CC35CCC12C (centres unmarked) [Example 19, cycloartenyl-p-aminobenzoate]	0.699	91.9	1.63	153.6	156.1	31.6	-42.8	-0.523	+6.2%	+5.4 mg/dl	-27.2	-0.61	-11.0	-19.0	-18.8	-36.1	-12.9%	-4.7 mg/dL
CC(C)=CCCC(C)C1CCC2(C)C3CCC4C(C)(C)C(OC(=O)C=Cc5ccc([N+](=O)[O-])cc5)CCC45CC35CCC12C (centres unmarked) [Example 101, cycloartenyl ester of p-nitro cinnamic acid]	3.668	46.4	2.12	150.7	216.6	28.2	-53.2	-4.172	+25.7%	+9.5 mg/dl	-24.3	-0.68	-9.0	-14.9	-33.6	-109.6	-17.1%	-5.8 mg/dL
CC(C)=C(C)CCC(C)C1CCC2(C)C3CCC4C(C)(C)C(OC(=O)C=Cc5ccc(N)cc5)CCC45CC35CCC12C (centres unmarked) [Example 104, cyclobranyl ester of p-aminocinnamic acid]	3.205	48.7	2.01	143.7	204.8	27.4	-59.1	-4.635	+32.0%	+11.8 mg/dl	-28.2	-0.79	-13.2	-21.9	-37.2	-121.4	-19.4%	-6.6 mg/dL
COc1ccc(C(=O)OC2CCC34CC35CCC3(C)C(C(C)CCC=C(C)C)CCC3(C)C5CCC4C2(C)C)cc1 (centres unmarked) [Example 14, cycloartenyl-p-methoxybenzoate]	1.275	64.1	1.81	120.9	145.8	25.4	-27.8	-0.492	+6.5%	+3.9 mg/dl	-28.5	-0.72	-11.6	-15.8	-12.5	-20.8	-6.6%	-1.8 mg/dL
C=C(CCC(C)C1CCC2(C)C3CCC4C(C)(C)C(OC(=O)C=Cc5ccc(O)c(OC)c5)CCC45CC35CCC12C)C(C)C (centres unmarked) [Example 100-3, 24-methylenecycloartanyl-4-hydroxy-3-methoxycinnamate]	1.393	73.8	1.89	152.9	176.6	35.1	-8.2	-0.124	-9.4%	-7.7 mg/dL	-16.7	-0.38	-11.9	-20.7	-13.9	-28.5	+2.3%	+0.8 mg/dl
CC(C)=CCCC(C)C1CCC2(C)C3CCC4C(C)(C)C(OC(=O)c5cccc(N)c5)CCC45CC35CCC12C (centres unmarked) [Example 23, cycloartenyl-m-aminobenzoate]	1.506	58.9	2.06	133.1	147.6	20.2	-18.5	-0.341	+0.3%	+0.2 mg/dl	-12.0	-0.28	-10.3	-15.3	-11.7	-19.5	-18.5%	-4.6 mg/dL
CC(C)=C(C)CCC(C)C1CCC2(C)C3CCC4C(C)(C)C(OC(=O)c5ccc(O)c(O)c5)CCC45CC35CCC12C (centres unmarked) [Example 39, cyclobranyl-3,4-dihydroxybenzoate]	0.803	98.1	1.99	155.1	176.9	39.8	-52.3	-0.881	+21.2%	+17.2 mg/dl	-14.0	-0.32	-13.7	-24.6	-18.5	-40.2	-6.9%	-3.0 mg/dL
CC(C)=C(C)CCC(C)C1CCC2(C)C3CCC4C(C)(C)C(OC(=O)c5cccc(N)c5)CCC45CC35CCC12C (centres unmarked) [Example 49, cyclobranyl-m-aminobenzoate]	1.288	58.0	2.02	128.4	132.7	18.3	-30.3	-0.559	-1.2%	-0.7 mg/dL	-13.7	-0.32	-13.5	-20.0	-20.6	-34.4	-26.2%	-6.5 mg/dL
CC(C)=CCCC(C)C1CCC2(C)C3CCC4C(C)(C)C(OC(=O)c5cccnc5)CCC45CC35CCC12C (centres unmarked) [Example 24, cycloartenyl nicotinate]	0.748	94.0	1.93	133.8	164.3	34.7	-38.8	-0.474	+8.7%	+7.5 mg/dl	-13.7	-0.31	-22.5	-38.8	-14.5	-27.9	4.3%	-1.6 mg/dL
CC(C)=C(C)CCC(C)C1CCC2(C)C3CCC4C(C)(C)C(OC(=O)/C=C/c5ccc(O)c(O)c5)CCC45CC35CCC12C (centres unmarked) [Example 32, cyclobranyl-3,4-dihydroxycinnamate]	1.135	89.2	2.06	168.2	190.4	40.7	-32.6		+10.2%	+8.3 mg/dl	-10.7	-0.25	-6.4	-11.5	-12.3	-26.7	-4.8%	-2.1 mg/dL
CC(C)=CCCC(C)C1CCC2(C)C3CCC4C(C)(C)C(OC(=O)c5ccccc5[N+](=O)[O-])CCC45CC35CCC12C (centres unmarked) [Example 16, cycloartenyl-o-nitrobenzoate]	1.529	59.4	2.04	140.1	150.2	22.0	-17.2	-0.318	+1.2%	+0.7 mg/dl	-12.8	-0.30	-5.6	-8.3	-10.1	-16.9	-11.3%	-2.8 mg/dL
